Test system: KRAS PDC multicell spheroid viability
Assay: Anticancer human tumor 825966-067-R-J1-PDC patient-derived colon carcinoma cell line growth inhibition [KRAS2]
Details: for IC50: curve of first compound; for viability, T/C: stronger effect = lower value
How it was run: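 KRAS-mutant tumor cells were grown as spheroids with HUVEC endothelial cells and human MSCs as stroma. Targeted agents were tested alone and with KRAS pathway inhibitors. Doses started at or near clinical Cmax, or 10 microM, descending half-log.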

[1] = second compound 0.1 µM, first compound 0.0316 µM
[2] = second compound 0.1 µM, first compound 0.1 µM
[3] = second compound 0.1 µM, first compound 0.316 µM
[4] = second compound 0.1 µM, first compound 1 µM
[5] = second compound 0.1 µM, first compound 3.16 µM
[6] = second compound 0.316 µM, first compound 0.0316 µM
[7] = second compound 0.316 µM, first compound 0.1 µM
[8] = second compound 0.316 µM, first compound 0.316 µM
[9] = second compound 0.316 µM, first compound 1 µM
[10] = second compound 0.316 µM, first compound 3.16 µM
[11] = second compound 1 µM, first compound 0.0316 µM
[12] = second compound 1 µM, first compound 0.1 µM
[13] = second compound 1 µM, first compound 0.316 µM
[14] = second compound 1 µM, first compound 1 µM
[15] = second compound 1 µM, first compound 3.16 µM
[16] = second compound 3.16 µM, first compound 0.0316 µM
[17] = second compound 3.16 µM, first compound 0.1 µM
[18] = second compound 3.16 µM, first compound 0.316 µM
[19] = second compound 3.16 µM, first compound 1 µM
[20] = second compound 3.16 µM, first compound 3.16 µM
[21] = second compound 0.1 µM, first compound 0.01 µM
[22] = second compound 0.316 µM, first compound 0.01 µM
[23] = second compound 1 µM, first compound 0.01 µM
[24] = second compound 3.16 µM, first compound 0.01 µM
[25] = second compound 10 µM, first compound 0.01 µM
[26] = second compound 10 µM, first compound 0.0316 µM
[27] = second compound 10 µM, first compound 0.1 µM
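Note: spheroids exposed to compounds for 7 days.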
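Throughout, for viability, T/C: 100% = DMSO vehicle control viability.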

SMILES: Cn1nccc1Nc1nccc(-c2cc3c(s2)C(C)(C)N(CCN2CCOCC2)C3=O)n1 + C=CC(=O)N1CCN(c2nc(OCC3CCCN3C)nc3c2CCN(c2cccc4cccc(C)c24)C3)CC1CC#N
- IC50 (second compound 0.0316 µM): > 10000 nM
- IC50 (second compound 0.1 µM): > 10000 nM
- IC50 (second compound 0.316 µM): > 10000 nM
- IC50 (second compound 1 µM): > 10000 nM
- IC50 (second compound 3.16 µM): 674 nM
- viability, T/C (second compound 0.0316 µM, first compound 0.0316 µM): 108%
- viability, T/C (second compound 0.0316 µM, first compound 0.1 µM): 91.1%
- viability, T/C (second compound 0.0316 µM, first compound 0.316 µM): 121%
- viability, T/C (second compound 0.0316 µM, first compound 1 µM): 108%
- viability, T/C (second compound 0.0316 µM, first compound 3.16 µM): 95.3%
- viability, T/C (second compound 0.0316 µM, first compound 10 µM): 68.5%
- viability, T/C [1]: 84%
- viability, T/C [2]: 91.6%
- viability, T/C [3]: 106%
- viability, T/C [4]: 100%
- viability, T/C [5]: 73.4%
- viability, T/C (second compound 0.1 µM, first compound 10 µM): 79.8%
- viability, T/C [6]: 72.2%
- viability, T/C [7]: 110%
- viability, T/C [8]: 125%
- viability, T/C [9]: 93.7%
- viability, T/C [10]: 75.9%
- viability, T/C (second compound 0.316 µM, first compound 10 µM): 61.2%
- viability, T/C [11]: 85.9%
- viability, T/C [12]: 96.1%
- viability, T/C [13]: 127%
- viability, T/C [14]: 96%
- viability, T/C [15]: 64.8%
- viability, T/C (second compound 1 µM, first compound 10 µM): 56.4%
- viability, T/C [16]: 84.9%
- viability, T/C [17]: 76.4%
- viability, T/C [18]: 104%
- viability, T/C [19]: 4.64%
- viability, T/C [20]: 27.8%
- viability, T/C (second compound 3.16 µM, first compound 10 µM): 57.8%

SMILES: CC(=O)OC12COC1CC(O)C1(C)C(=O)C(O)C3=C(C)C(OC(=O)C(O)C(NC(=O)OC(C)(C)C)c4ccccc4)CC(O)(C(OC(=O)c4ccccc4)C21)C3(C)C (stereo not given) + CC1OCC2(CCN(c3cnc(Sc4ccnc(N)c4Cl)c(N)n3)CC2)C1N
- IC50 (second compound 0.1 µM): < 10 nM
- IC50 (second compound 0.316 µM): < 10 nM
- IC50 (second compound 1 µM): < 10 nM
- IC50 (second compound 3.16 µM): < 10 nM
- IC50 (second compound 10 µM): < 10 nM
- viability, T/C [21]: 17.9%
- viability, T/C [1]: 15.2%
- viability, T/C [2]: 18.4%
- viability, T/C [3]: 17.1%
- viability, T/C [4]: 17.3%
- viability, T/C [5]: 22%
- viability, T/C [22]: 13.1%
- viability, T/C [6]: 12%
- viability, T/C [7]: 13.3%
- viability, T/C [8]: 12%
- viability, T/C [9]: 15.8%
- viability, T/C [10]: 15.9%
- viability, T/C [23]: 17.5%
- viability, T/C [11]: 18%
- viability, T/C [12]: 18.9%
- viability, T/C [13]: 12.3%
- viability, T/C [14]: 13%
- viability, T/C [15]: 21.6%
- viability, T/C [24]: 10.3%
- viability, T/C [16]: 10.2%
- viability, T/C [17]: 10.7%
- viability, T/C [18]: 6.99%
- viability, T/C [19]: 7.72%
- viability, T/C [20]: 11.7%
- viability, T/C [25]: 7.08%
- viability, T/C [26]: 7.25%
- viability, T/C [27]: 10%
- viability, T/C (second compound 10 µM, first compound 0.316 µM): 6.28%
- viability, T/C (second compound 10 µM, first compound 1 µM): 4.82%
- viability, T/C (second compound 10 µM, first compound 3.16 µM): 10.1%

SMILES: CN(C)C/C=C/C(=O)Nc1cc2c(Nc3ccc(F)c(Cl)c3)ncnc2cc1O[C@H]1CCOC1 + CC1OCC2(CCN(c3cnc(Sc4ccnc(N)c4Cl)c(N)n3)CC2)C1N
- IC50 (second compound 0.1 µM): > 100 nM
- IC50 (second compound 0.316 µM): > 100 nM
- IC50 (second compound 1 µM): > 100 nM
- IC50 (second compound 3.16 µM): > 100 nM
- IC50 (second compound 10 µM): > 100 nM
- viability, T/C (second compound 0.1 µM, first compound 0.000316 µM): 103%
- viability, T/C (second compound 0.1 µM, first compound 0.001 µM): 100%
- viability, T/C (second compound 0.1 µM, first compound 0.00316 µM): 126%
- viability, T/C [21]: 120%
- viability, T/C [1]: 91.4%
- viability, T/C [2]: 80.2%
- viability, T/C (second compound 0.316 µM, first compound 0.000316 µM): 93.4%
- viability, T/C (second compound 0.316 µM, first compound 0.001 µM): 86.6%
- viability, T/C (second compound 0.316 µM, first compound 0.00316 µM): 94.2%
- viability, T/C [22]: 79.1%
- viability, T/C [6]: 105%
- viability, T/C [7]: 101%
- viability, T/C (second compound 1 µM, first compound 0.000316 µM): 104%
- viability, T/C (second compound 1 µM, first compound 0.001 µM): 118%
- viability, T/C (second compound 1 µM, first compound 0.00316 µM): 99%
- viability, T/C [23]: 81.8%
- viability, T/C [11]: 84.2%
- viability, T/C [12]: 96.8%
- viability, T/C (second compound 3.16 µM, first compound 0.000316 µM): 100%
- viability, T/C (second compound 3.16 µM, first compound 0.001 µM): 105%
- viability, T/C (second compound 3.16 µM, first compound 0.00316 µM): 93.9%
- viability, T/C [24]: 86.3%
- viability, T/C [16]: 88.1%
- viability, T/C [17]: 85.9%
- viability, T/C (second compound 10 µM, first compound 0.000316 µM): 81.1%
- viability, T/C (second compound 10 µM, first compound 0.001 µM): 87.2%
- viability, T/C (second compound 10 µM, first compound 0.00316 µM): 108%
- viability, T/C [25]: 107%
- viability, T/C [26]: 94.9%
- viability, T/C [27]: 124%

Source: PubChem BioAssay AID1963865 (Molecular Pharmacology Branch, DTP, NCI, 2024)
